The term EC50 denotes the concentration giving half of the maximal effect.

Results on 49 molecules are retold here after patent US12319692B2, “Anti-influenza virus pyrimidine derivatives” (GUANGDONG RAYNOVENT BIOTECH CO., LTD., priority 2016, dated 2025).

Experiment [1] relates to Influenza virus A/Weiss/43 (H1N1). The experiment in a line: Influenza virus cytopathic effect (CPE) experiment in MDCK cells. It counts as cell-based. Particulars: 120 h, 5 days, CCK8 cell viability. A general note: Damage to the host cells serves as the signal in cytopathic effect assays.
For experiment [2], the system named is influenza A virus H1N1 (H1N1 A/WSN/33). Nature of the experiment: In vivo pharmacodynamics in mouse infection model of influenza A virus H1N1. The note with it: female BALB/c mice, H1N1 A/WSN/33, 10 mg/kg oral twice a day, day 1 to day 7, first dose 36 hours after infection.

`CN1CC(n2cc(-c3nc(-c4c[nH]c5ncc(F)cc45)nc(N[C@H]4C5CCC(CC5)[C@@H]4C(=O)O)c3F)cn2)C1` [WX-293] displayed a concentration for a half-maximal effect (EC50) in experiment [1] of 8 nM.

Take `CC(C)(C)Sc1nc(-c2n[nH]c3ncc(F)cc23)nc(N[C@H]2C3CCC(CC3)[C@@H]2C(=O)O)c1F` [WX-274]: it took 0.1 nM to reach a half-maximal effect in experiment [1] (EC50).

With `O=C(O)[C@H]1C2CCC(CC2)[C@@H]1Nc1nc(-c2n[nH]c3ncc(F)cc23)nc(-c2cccs2)c1F` [WX-271], the midpoint of the response in experiment [1], the EC50, lay at 0.057 nM.

As for `O=C(O)[C@H]1C2CCC(CC2)[C@@H]1Nc1nc(-c2n[nH]c3ncc(F)cc23)nc(C2CC2)c1F` [WX-216], in experiment [2], the “Survival Rate (percentages)” value worked out at 100% and the “Weight Losing Rate (day 9)” value is 4.8%. In addition, the EC50 in experiment [1] was 0.013 nM.

As to `CC(C)(C(=O)O)n1cc(-c2nc(-c3c[nH]c4ncc(F)cc34)nc(N[C@H]3C4CCC(CC4)[C@@H]3C(=O)O)c2F)cn1` [WX-284], it took 10 nM to reach a half-maximal effect in experiment [1] (EC50).

Turning to `CC(C)(C(N)=O)n1cc(-c2nc(-c3c[nH]c4ncc(F)cc34)nc(N[C@H]3C4CCC(CC4)[C@@H]3C(=O)O)c2F)cn1` [WX-286], in experiment [1], the half-maximal effective concentration (EC50) was determined as 3.7 nM.

`CSc1nc(-c2c[nH]c3ncc(F)cc23)nc(N[C@H]2C3CCC(CC3)[C@@H]2C(=O)O)c1F` [WX-139]: a half-maximal response in experiment [1] (EC50) required 0.02 nM.

As for `CN1CCN(C(=O)c2ccc(-c3nc(-c4c[nH]c5ncc(F)cc45)nc(N[C@H]4C5CCC(CC5)[C@@H]4C(=O)O)c3F)s2)CC1` [WX-288], in experiment [1], the EC50 came to 2.3 nM.

In experiment [1], `Cc1ccc(-c2nc(-c3c[nH]c4ncc(F)cc34)nc(N[C@H]3C4CCC(CC4)[C@@H]3C(=O)O)c2F)s1` [WX-247] showed an EC50 of 56.6 nM.

On to `O=C(O)[C@H]1C2CCC(CC2)[C@@H]1Nc1nc(-c2n[nH]c3ncc(F)cc23)nc(-c2cn[nH]c2)c1F` [WX-265], for which the response in experiment [1] was half-maximal at 2.8 nM (EC50).

In experiment [1], `Cn1cc(-c2nc(-c3n[nH]c4ncc(F)cc34)nc(N[C@H]3C4CCC(CC4)[C@@H]3C(=O)O)c2F)cn1` [WX-264] registered a concentration for a half-maximal effect (EC50) of 0.1 nM.

As to `CCn1cc(-c2nc(-c3c[nH]c4ncc(F)cc34)nc(N[C@H]3C4CCC(CC4)[C@@H]3C(=O)O)c2F)cn1` [WX-294], in experiment [1], the EC50 amounted to 0.1 nM.

With `Cn1cc(-c2nc(-c3n[nH]c4ncc(C(F)(F)F)cc34)nc(N[C@H]3C4CCC(CC4)[C@@H]3C(=O)O)c2F)cn1` [WX-280], the concentration giving a half-maximal response (EC50) in experiment [1] is 0.055 nM. Compared with the last molecule, the EC50 is about 1.8-fold lower.

Turning to `CC1(c2nc(-c3n[nH]c4ncc(F)cc34)nc(N[C@H]3C4CCC(CC4)[C@@H]3C(=O)O)c2F)CC1` [WX-351], the “Weight Losing Rate (day 9)” value in experiment [2] was found to be 35.3%. The molecule further returned an EC50 in experiment [1] of 0.2 nM.

The molecule `Cc1noc(C)c1-c1nc(-c2c[nH]c3ncc(F)cc23)nc(N[C@H]2C3CCC(CC3)[C@@H]2C(=O)O)c1F` [WX-245] gave an EC50 in experiment [1] of 4 nM.

Consider `O=C(O)[C@H]1C2CCC(CC2)[C@@H]1Nc1nc(-c2c[nH]c3ncc(F)cc23)nc(-c2ccc(Cl)s2)c1F` [WX-298], for which a half-maximal effect in experiment [1] (EC50) was put at 6.7 nM.

The molecule `CSc1nc(-c2nc(-c3c[nH]c4ncc(F)cc34)nc(N[C@H]3C4CCC(CC4)[C@@H]3C(=O)O)c2F)c[nH]1` [WX-276] displayed an EC50 in experiment [1] of 3.6 nM. This EC50 is about 1.9-fold lower than that of the molecule before.

In turn, `CC(C)(C)Sc1nc(-c2c[nH]c3ncc(F)cc23)nc(N[C@H]2C3CCC(CC3)[C@@H]2C(=O)O)c1F` [WX-241] gave an EC50 in experiment [1] of 0.01 nM.

The molecule `O=C(O)[C@H]1C2CCC(CC2)[C@@H]1Nc1nc(-c2c[nH]c3ncc(F)cc23)nc(-c2ccn(C(F)F)n2)c1F` [WX-352] gave an EC50 in experiment [1] of 0.046 nM.

Molecule `CN(C)Cc1cc(-c2nc(-c3c[nH]c4ncc(F)cc34)nc(N[C@H]3C4CCC(CC4)[C@@H]3C(=O)O)c2F)cs1` [WX-295] yielded a half-maximal effective concentration (EC50) in experiment [1] of 0.013 nM. This EC50 lies about 3.5-fold lower than the previous one.

Molecule `O=C(O)c1ccc(-c2nc(-c3c[nH]c4ncc(F)cc34)nc(N[C@H]3C4CCC(CC4)[C@@H]3C(=O)O)c2F)s1` [WX-278] gave an EC50 in experiment [1] of 2.7 nM.

On to `CC(C)C#Cc1nc(-c2c[nH]c3ncc(F)cc23)nc(N[C@H]2C3CCC(CC3)[C@@H]2C(=O)O)c1F` [WX-249], for which, in experiment [1], the EC50 was found to be 0.009 nM.

As to `O=C(O)[C@H]1C2CCC(CC2)[C@@H]1Nc1nc(-c2c[nH]c3ncc(F)cc23)nc(-n2ccnc2)c1F` [WX-186], in experiment [1], a half-maximal effect (EC50) was put at 0.1 nM.

`Cn1cc(-c2nc(-c3c[nH]c4ncc(F)cc34)nc(N[C@H]3C4CCC(CC4)[C@@H]3C(=O)O)c2F)cn1` [WX-231]: in experiment [2], the “Survival Rate (percentages)” value amounted to 100% and the “Weight Losing Rate (day 9)” value was determined as 12.9%. Besides, it took 0.2 nM to reach a half-maximal effect in experiment [1] (EC50).

The molecule `O=C(O)[C@H]1C2CCC(CC2)[C@@H]1Nc1nc(-c2c[nH]c3ncc(F)cc23)nc(-c2cnn(C3CC3)c2)c1F` [WX-281] had an EC50 in experiment [1] of 0.026 nM. In other words, the picomolar range.

`COCCn1cc(-c2nc(-c3c[nH]c4ncc(F)cc34)nc(N[C@H]3C4CCC(CC4)[C@@H]3C(=O)O)c2F)cn1` [WX-283] had a concentration for a half-maximal effect (EC50) in experiment [1] of 0.4 nM.

In experiment [1], `O=C(O)[C@H]1C2CCC(CC2)[C@@H]1Nc1nc(-c2c[nH]c3ncc(F)cc23)nc(-c2cccs2)c1F` [WX-236] came in with a half-maximal effective concentration (EC50) of 0.01 nM.

With `O=C(O)[C@H]1C2CCC(CC2)[C@@H]1Nc1nc(-c2c[nH]c3ncc(F)cc23)nc(-c2cc[nH]n2)c1F` [WX-260], the midpoint of the response in experiment [1], the EC50, lay at 1.1 nM.

On to `CC(C)Sc1nc(-c2c[nH]c3ncc(F)cc23)nc(N[C@H]2C3CCC(CC3)[C@@H]2C(=O)O)c1F` [WX-261], for which the response in experiment [1] was half-maximal at 0.018 nM (EC50).

For the molecule `O=C(O)[C@H]1C2CCC(CC2)[C@@H]1Nc1nc(-c2c[nH]c3ncc(F)cc23)nc(-c2ccc(CN3CCOCC3)s2)c1F` [WX-290], in experiment [2], the “Survival Rate (percentages)” value was 40% and the “Weight Losing Rate (day 9)” value is 27.6%. This molecule yielded an EC50 in experiment [1] of 0.041 nM.

The molecule `N#C[C@H]1C[C@@H]1c1nc(-c2n[nH]c3ncc(F)cc23)nc(N[C@H]2C3CCC(CC3)[C@@H]2C(=O)O)c1F` [WX-359] yielded an EC50 in experiment [1] of 0.09 nM.

As for `CN(C)Cc1ccc(-c2nc(-c3c[nH]c4ncc(F)cc34)nc(N[C@H]3C4CCC(CC4)[C@@H]3C(=O)O)c2F)s1` [WX-279], in experiment [2], the “Survival Rate (percentages)” value was 100% and the “Weight Losing Rate (day 9)” value was 28.7%. The molecule also returned a 50% effective concentration (EC50) in experiment [1] of 0.025 nM.

`O=C(O)[C@H]1C2CCC(CC2)[C@@H]1Nc1nc(-c2n[nH]c3ncc(F)cc23)nc(C2(F)CC2)c1F` [WX-355] came in with an EC50 in experiment [1] of 0.04 nM. That is a picomolar value.

Regarding `CN1CCN(Cc2ccc(-c3nc(-c4c[nH]c5ncc(F)cc45)nc(N[C@H]4C5CCC(CC5)[C@@H]4C(=O)O)c3F)s2)CC1` [WX-289], in experiment [1], a half-maximal response (EC50) required 0.1 nM.

For `O=C(O)[C@H]1C2CCC(CC2)[C@@H]1Nc1nc(-c2n[nH]c3ncc(F)cc23)nc(-c2ccsc2)c1F` [WX-269], the EC50 in experiment [1] worked out at 0.019 nM.

Regarding `CC(C)(C)C#Cc1nc(-c2c[nH]c3ncc(F)cc23)nc(N[C@H]2C3CCC(CC3)[C@@H]2C(=O)O)c1F` [WX-275], in experiment [1], the EC50 was determined as 0.009 nM. This EC50 lies about 2.1-fold lower than the previous one.

Molecule `NC1(c2nc(-c3n[nH]c4ncc(F)cc34)nc(N[C@H]3C4CCC(CC4)[C@@H]3C(=O)O)c2F)CC1` [WX-354] gave a concentration giving a half-maximal response (EC50) in experiment [1] of 4.4 nM.

Molecule `N#CC1(c2nc(-c3n[nH]c4ncc(F)cc34)nc(N[C@H]3C4CCC(CC4)[C@@H]3C(=O)O)c2F)CC1` [WX-358] returned an EC50 in experiment [1] of 0.6 nM.

With `O=C(O)[C@H]1C2CCC(CC2)[C@@H]1Nc1nc(-c2c[nH]c3ncc(F)cc23)nc(-c2cnn(CCO)c2)c1F` [WX-263], the EC50 in experiment [1] is 1.5 nM.

On to `O=C(O)[C@H]1C2CCC(CC2)[C@@H]1Nc1nc(-c2c[nH]c3ncc(F)cc23)nc(-c2ccsc2)c1F` [WX-240], for which the EC50 in experiment [1] came out at 0.03 nM.

`CSc1nc(-c2c[nH]c3c(F)cc(F)cc23)nc(N[C@H]2C3CCC(CC3)[C@@H]2C(=O)O)c1F` [WX-160] came in with a 50% effective concentration (EC50) in experiment [1] of 0.5 nM.

Turning to `Cc1csc(-c2nc(-c3c[nH]c4ncc(F)cc34)nc(N[C@H]3C4CCC(CC4)[C@@H]3C(=O)O)c2F)c1` [WX-285], the half-maximal effective concentration (EC50) in experiment [1] was determined as 32 nM. This EC50 is about 64-fold higher than that of the molecule before.

As to `O=C(O)[C@H]1C2CCC(CC2)[C@@H]1Nc1nc(-c2n[nH]c3ncc(F)cc23)nc(C2CC2F)c1F` (stereo partly drawn) [WX-353], in experiment [1], the EC50 is 0.039 nM.

For the molecule `O=C(O)[C@H]1C2CCC(CC2)[C@@H]1Nc1nc(-c2c[nH]c3ncc(F)cc23)nc(SCC(F)(F)F)c1F` [WX-234], the midpoint of the response in experiment [1], the EC50, lay at 0.1 nM.

Regarding `N#C[C@@H]1C[C@H]1c1nc(-c2n[nH]c3ncc(F)cc23)nc(N[C@H]2C3CCC(CC3)[C@@H]2C(=O)O)c1F` [WX-360], a half-maximal effect in experiment [1] (EC50) was put at 0.2 nM.

For the molecule `CCSc1nc(-c2c[nH]c3ncc(F)cc23)nc(N[C@H]2C3CCC(CC3)[C@@H]2C(=O)O)c1F` [WX-156], a half-maximal response in experiment [1] (EC50) required 0.01 nM.

Molecule `O=C(O)[C@H]1C2CCC(CC2)[C@@H]1Nc1nc(-c2c[nH]c3ncc(F)cc23)nc(-c2ccncc2)c1F` [WX-230] returned an EC50 in experiment [1] of 0.1 nM. This EC50 is about 10-fold higher than that of the molecule before.

Take `O=C(O)[C@H]1C2CCC(CC2)[C@@H]1Nc1nc(-c2n[nH]c3ncc(F)cc23)nc(C2CC2(F)F)c1F` (stereo partly drawn) [WX-297]: in experiment [2], the “Survival Rate (percentages)” value was determined as 100% and the “Weight Losing Rate (day 9)” value was 27.3%. In experiment [1], the EC50 was 0.024 nM.

Consider `N#CCn1cc(-c2nc(-c3c[nH]c4ncc(F)cc34)nc(N[C@H]3C4CCC(CC4)[C@@H]3C(=O)O)c2F)cn1` [WX-296], for which, in experiment [1], the response was half-maximal at 1 nM (EC50).
